From patent US20140120036A1, “RADIOLABELED 5-HT6 LIGANDS” (AbbVie Inc., priority 2012, published 2014)
Read-outs that look alike come from different tables or passages of the source. Values belong to the compound of their own block, whether it stands above or below them.

Columns and labels:
[1] = Brain regional distribution of [3H]compound relative to cerebellum; assay type: in vivo
Mk striatum 5-HT6 = Mk striatum 5-HT6 (Macaca mulatta, UniProt A0A5F7ZDI3); assay: Mk striatum 5-HT6 binding; set-up: species or system Mk (monkey)
h-5-HT2A receptor = target: T1, h-5-HT2A receptor (Homo sapiens, UniProt P28223); assay: 5-HT2A receptor binding assay ([125I]-DOI displacement, CHO-K1 membranes)
T1 construct: purchased Perkin Elmer ES-3,3-M400UA; host or cells: CHO-K1 cell membranes
Description: The cells were collected by centrifugation at 500 g for 10 min. at 4° C., washed with PBS and centrifuged (500 g, 10 min. 4° C.). The pellets were stored at −80° C. until use. For membrane preparation, the thawed cell pellet was resuspended in ice-cold sucrose buffer (0.25 M sucrose, 10 mM Hepes (pH 7.4), 1 mM Phenylmethylsulfonyl fluoride (PMSF) in DMSO, […] Pepstatin-A, 3 mM EDTA, 0.025% Bacitracin) and homogenized with a Branson Sonifier W-250 (Settings: Timer 4; Output Control 3; Duty Cycle constant; 2 to 3 cycles). Cell disruption was checked with the aid of a microscope. Remaining unbroken cells were pelleted at 1,000 g for 10 min. at 4° C. The sucrose buffer supernatant was then centrifuged at 60,000 g for 1 h at 4° C. (Beckman Ultrazentrifuge XL 80). The pellet was resuspended in 30 ml ice-cold Tris buffer (20 mM TRIS (pH 7.4), […] Pepstatin A, 0.1 mM PMSF, 3 mM EDTA) by pipetting through a 10 ml serological pipet and centrifuged for 1 h at 4° C. at 60,000 g. A final resuspension was performed in a small volume of ice-cold Tris buffer (see above) by pressing through a serological pipet followed by ultrasonic treatment with a Branson Sonifier W-250 (Settings: Timer 1; Output Control 3; Duty Cycle constant; 1 cycle). Protein concentration was determined (BCA-Kit; Pierce) and aliquots stored at −80° C. or in liquid nitrogen for long-term storage.
After the plates had been dried for 2 h at 55° C. in a drying chamber scintillation cocktail (BetaPlate Scint; PerkinElmer) was added. Radioactivity was measured in a Microbeta Trilux two hours after the addition of the scintillation mixture. Data derived from liquid scintillation counting were analysed by iterative non-linear regression analysis with the use of the Statistical Analysis System (SAS): a program similar to “LIGAND” as described by Munson and Rodbard (Analytical Biochemistry 107, 220-239 (1980).
Data derived from liquid scintillation counting were analyzed by iterative non-linear regression analysis with the use of the Statistical Analysis System (SAS): a program similar to “LIGAND” as described by Munson and Rodbard (Anal. Biochem. 1980, 107, 220-239). Fitting was performed according to formulae described by Feldman (Anal. Biochem. 1972, 48, 317-338).

[2] = Rat PK (0.05 mg/kg, iv), plasma and brain concentrations; assay type: in vivo; settings: for Free B/P Ratio: free brain concentration divided by free plasma concentration
[3] = target: 78 targets (CEREP) other than the 5-HT6 receptor; assay: Selectivity panel, 78 targets (CEREP); assay type: binding; settings: all but the 5-HT2B and 5-HT2A receptors, read-out: Ki at ancillary targets
Rat microsome half-life = assay type: in vitro ADME; settings: rat microsomes, read-out: Rat microsome T½ (mm)
Rat 5-HT6 = Rat 5-HT6 (Rattus norvegicus, UniProt P31388); assay: Rat 5-HT6 binding
h-5-HT2B receptor = target: T2, h-5-HT2B receptor (Homo sapiens, UniProt P41595); assay: 5-HT2B receptor binding assay ([125I]-DOI displacement, CHO-K1 membranes); settings: text
T2 construct: purchased Perkin Elmer ES-3,4-M400UA; host or cells: CHO-K1 cell membranes
Description: (§1) Cells from stable clonal cell lines expressing the corresponding receptor (5-HT6, 5-HT2A or 5-HT2B receptors) were washed with PBS with 0.02% EDTA. The cells were collected by centrifugation at 500 g for 10 min. at 4° C., washed with PBS and centrifuged (500 g, 10 min. 4° C.). The pellets were stored at −80° C. until use. For membrane preparation, the thawed cell pellet was resuspended in ice-cold sucrose buffer (0.25 M sucrose, 10 mM Hepes (pH 7.4), 1 mM Phenylmethylsulfonyl fluoride (PMSF) in DMSO, […] Pepstatin-A, 3 mM EDTA, 0.025% Bacitracin) and homogenized with a Branson Sonifier W-250 (Settings: Timer 4; Output Control 3; Duty Cycle constant; 2 to 3 cycles). Cell disruption was checked with the aid of a microscope. Remaining unbroken cells were pelleted at 1,000 g for 10 min. at 4° C. The sucrose buffer supernatant was then centrifuged at 60,000 g for 1 h at 4° C. (Beckman Ultrazentrifuge XL 80). […] Protein concentration was determined (BCA-Kit; Pierce) and aliquots stored at −80° C. or in liquid nitrogen for long-term storage.
All receptor binding experiments were carried out in the corresponding assay buffer in a total volume of 200 μl in the presence of various concentrations of test compound (10 ^−5 M to 10^−9 M, tenfold serial dilution, duplicate determinations). […] Radioactivity was measured in a Microbeta Trilux two hours after the addition of the scintillation mixture. […]

h-5-HT6 receptor = target: T3, h-5-HT6 receptor (Homo sapiens, UniProt P50406); assay: 5-HT6 receptor binding assay ([3H]-LSD displacement, HEK293 membranes); settings: human 5-HT6
T3 construct: expressed in transfected cells
Description: as §1, with “The” for “Cells from stable clonal cell lines expressing the corresponding receptor (5-HT6, 5-HT2A or 5-HT2B receptors) were washed with PBS with 0.02% EDTA. The”, “C.” for “C. (Beckman Ultrazentrifuge XL 80).”
After the plates had been dried for 2 h at 55° C. in a drying chamber scintillation cocktail (BetaPlate Scint; PerkinElmer) was added. Radioactivity was measured in a Microbeta Trilux two hours after the addition of the scintillation mixture. Data derived from liquid scintillation counting were analysed by iterative non-linear regression analysis with the use of the Statistical Analysis System (SAS): a program similar to “LIGAND” as described by Munson and Rodbard (Analytical Biochemistry 107, 220-239 (1980). […]

T1 sequence (P28223 whole entry): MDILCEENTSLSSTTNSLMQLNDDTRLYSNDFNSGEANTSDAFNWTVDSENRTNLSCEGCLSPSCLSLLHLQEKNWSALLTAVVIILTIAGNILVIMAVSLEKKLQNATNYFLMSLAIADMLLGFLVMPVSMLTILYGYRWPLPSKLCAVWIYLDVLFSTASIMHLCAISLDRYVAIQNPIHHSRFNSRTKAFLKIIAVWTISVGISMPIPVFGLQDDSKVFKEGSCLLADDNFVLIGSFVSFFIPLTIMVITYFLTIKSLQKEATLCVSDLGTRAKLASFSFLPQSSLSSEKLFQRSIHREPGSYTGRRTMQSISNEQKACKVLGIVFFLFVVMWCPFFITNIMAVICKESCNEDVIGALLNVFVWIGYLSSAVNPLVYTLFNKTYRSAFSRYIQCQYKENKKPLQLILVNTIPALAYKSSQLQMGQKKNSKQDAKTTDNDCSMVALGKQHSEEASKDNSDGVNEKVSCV
T2 sequence (P41595 whole entry): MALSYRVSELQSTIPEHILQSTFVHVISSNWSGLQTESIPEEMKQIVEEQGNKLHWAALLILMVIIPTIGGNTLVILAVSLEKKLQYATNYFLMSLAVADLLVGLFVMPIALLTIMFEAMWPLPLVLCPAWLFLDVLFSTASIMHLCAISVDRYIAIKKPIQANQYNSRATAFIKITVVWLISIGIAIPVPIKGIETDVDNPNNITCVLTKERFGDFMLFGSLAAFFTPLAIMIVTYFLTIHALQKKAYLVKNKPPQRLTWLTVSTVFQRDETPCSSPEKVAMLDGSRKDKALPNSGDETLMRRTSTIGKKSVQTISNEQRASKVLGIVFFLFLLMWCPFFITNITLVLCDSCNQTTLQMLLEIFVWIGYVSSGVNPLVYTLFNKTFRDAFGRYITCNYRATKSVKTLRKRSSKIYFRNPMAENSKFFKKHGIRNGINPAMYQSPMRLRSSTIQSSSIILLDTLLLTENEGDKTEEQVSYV
Mk striatum 5-HT6, sequence (A0A5F7ZDI3 1-440): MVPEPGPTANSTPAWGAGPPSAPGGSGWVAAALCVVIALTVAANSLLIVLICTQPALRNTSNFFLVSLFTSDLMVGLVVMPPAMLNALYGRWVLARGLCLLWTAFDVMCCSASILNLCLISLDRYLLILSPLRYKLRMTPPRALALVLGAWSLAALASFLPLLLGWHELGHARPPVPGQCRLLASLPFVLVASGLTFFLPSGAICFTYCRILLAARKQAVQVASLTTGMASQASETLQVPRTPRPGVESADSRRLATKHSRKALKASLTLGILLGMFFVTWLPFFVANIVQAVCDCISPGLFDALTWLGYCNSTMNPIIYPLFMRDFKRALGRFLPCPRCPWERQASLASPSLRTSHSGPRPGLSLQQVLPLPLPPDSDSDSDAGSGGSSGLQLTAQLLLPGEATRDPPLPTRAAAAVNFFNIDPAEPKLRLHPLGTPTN
T3 sequence (P50406 whole entry): as the sequence (A0A5F7ZDI3 1-440) above, with V41A, V49A, P141L, A304V, W342R, Q393R, R406Q, K429E, L432P, T437I counted along it
Rat 5-HT6, sequence (P31388 whole entry): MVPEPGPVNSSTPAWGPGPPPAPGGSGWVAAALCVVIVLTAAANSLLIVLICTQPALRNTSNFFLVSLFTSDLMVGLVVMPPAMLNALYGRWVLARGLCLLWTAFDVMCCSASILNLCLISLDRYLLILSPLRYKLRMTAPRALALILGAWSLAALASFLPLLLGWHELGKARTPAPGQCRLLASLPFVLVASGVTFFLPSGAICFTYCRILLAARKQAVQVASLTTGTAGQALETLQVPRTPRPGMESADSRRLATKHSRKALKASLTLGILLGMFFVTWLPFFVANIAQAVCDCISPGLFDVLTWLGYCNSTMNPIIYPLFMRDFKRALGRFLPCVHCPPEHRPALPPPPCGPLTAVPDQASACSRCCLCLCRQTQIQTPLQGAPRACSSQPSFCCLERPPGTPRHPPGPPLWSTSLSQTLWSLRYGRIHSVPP

Hippo./Cer. ([1]; 3 min after dose): 3.7
Striatum/Cer. ([1]; 3 min after dose): 10.4
Hippo./Cer. ([1]; 40 min after dose): 1.4
Striatum/Cer. ([1]; 40 min after dose): 2.0
Compound: 1-(5-(3-(difluoromethoxy)phenylsulfonyl)-2-methoxyphenyl)-4-([^3H]methyl)-piperazine [Example 3]

Compound: CN1CCN(c2cccc3cc(S(=O)(=O)c4cccc(F)c4)cnc23)CC1 [GSK-215083, reference compound]
Ki (Mk striatum 5-HT6): 3.2 nM
Ki (h-5-HT2A receptor; human 5-HT2A, read-out: Human 5-HT2A Ki): 0.395 nM

Compound: COc1ccc(S(=O)(=O)c2cccc(OC(F)F)c2)cc1N1CCN(C)CC1 [Example 1, 4-(5-(3-(difluoromethoxy)phenylsulfonyl)-2-methoxyphenyl)-1-methylpiperazin-1-ium chloride]
Free [brain] ([2]; 3 min after dose): 53.4 ng/g
Plasma Conc. ([2]; 3 min after dose): 49.2 ng/mL
Free B/P Ratio ([2]; 3 min after dose): 1.1
Free [brain] ([2]; 5 min after dose): 55.3 ng/g
Plasma Conc. ([2]; 5 min after dose): 29.0 ng/mL
Free B/P Ratio ([2]; 5 min after dose): 1.7
Ki [3]: > 1000 nM
half-life (Rat microsome half-life): 10 min
Ki (Rat 5-HT6): 1.5 nM
Ki (h-5-HT2B receptor): 71 nM
Selectivity for 5-HT6 over 5-HT2B (h-5-HT2B receptor): 173.2 fold
Selectivity for 5-HT6 v. 5-HT2A (h-5-HT2A receptor; ratio of human 5-HT2A Ki to human 5-HT6 Ki): 475.6 ×
Selectivity for 5-HT6 over 5-HT2A (h-5-HT2A receptor; text): 475.6 fold
Selectivity for 5-HT6 over 5-HT2A (h-5-HT2A receptor; text, listed as Example (1)): 475 fold
Ki (h-5-HT2A receptor; text, read-out: Ki at 5-HT2A receptor): 195 nM
Ki (h-5-HT6 receptor): 0.41 nM
